Read-outs that look alike come from different tables or passages of the source.
Assays:
[1] = tested on: C. albicans 103; assay: Survival of immunosuppressed mice systemically infected with C. albicans; assay type: in vivo, Candida albicans; settings: immunosuppressed ICR mice, 1 × 10^6 CFU i.v.; oral FLC 0.5 mg/kg/day, Ost 150 mg/kg/day, 4 d treatment
Protocol: Sixty female ICR mice (weighing 20–25 g) were prepared in the antifungal study in vivo. We followed the methods of Junius M et al. and Kenneth et al. with a few modifications.[45,46] Briefly, acute infections in immunosuppressed mice, resulting from a 80 mg/kg/day intravenous dose of cyclophosphamide 3 d before infection, then injected with 1 × 10^6 CFU C. albicans in 0.2 ml of saline intravenously. This inoculum was uniformly lethal for placebo-treated animals within a week. After inoculation, the mice were randomly separated into 6 groups (10 animals per group), including saline control group and medication administration groups (FLC, Ost-S100-NP, Ost-suspensions, Ost-suspensions plus FLC, and Ost-S100-NP plus FLC). The dosages of FLC and Ost are 0.5 mg/kg/day and 150 mg/kg/day by oral administration. Therapy was begun 2 hours post infection and last for 4 d. The survival time was calculated from the day 0 since inoculation to the day of death. Survival data were presented as Kaplan-Merier plots and analyzed with a Log-rank Test (SPSS 18; SPSS, Chicago, Illinois). A value of P < 0.05 was considered to be significant.

[2] = tested on: C. albicans 103; assay: Agar disk diffusion test; assay type: cell-based, Candida albicans; settings: for anti-fungal activity, disk on plain agar: Ost alone
Protocol: C. albicans 103 (FLC-resistant isolate with a MIC80 of 64 μg/ml for […]) was tested by agar diffusion assay.[44] A 100 μl of C. albicans 103 in 10^6 CFU/ml suspension was spread uniformly onto the yeast extract-peptone-dextrose agar plate with or without 64 μg/ml FLC. Then, 6-mm paper disks impregnated with Ost and FLC alone or in combination were placed onto the agar surface. There was 5 μl of DMSO in control disks. Inhibition zones were measured after incubation at 35°C for 48 h. Assays were performed in duplicate.

[3] = tested on: clinical isolates of C. albicans resistant to FLC; assay: Checkerboard microdilution assay (CLSI M27-A2), FLC-resistant clinical isolates; assay type: cell-based, Candida albicans; settings: for MIC80: Candida albicans, read-out: MIC80 alone; for MIC80 / MIC80 alone: 24 h, 35 °C; for antifungal activity when tested alone: FLC-resistant isolates, drug alone; for MIC80 in combination: FLC combined with Ost
Protocol: (§1) Eleven clinical isolates of FLC-resistant C. albicans were used in this study, and C. albicans ATCC 90028 was used as a quality control. Drugs prepared in dimethyl sulfoxide (DMSO) included osthol (Shanghai Jianglai Biotechnology Co. Ltd, China) and fluconazole (Pfizer-Roerig Pharmaceuticals, New York, NY).
(§2) Assays were performed on all 11 isolates according to methods of the CLSI (formerly NCCLS) (M27-A2). The concentration of fungus suspension in RPMI 1640 medium was 10^3 CFU/ml, and the final concentration ranged from 0.125 to 64 μg/ml for FLC and 1 to 32 μg/ml for OST. Plates were incubated at 35 °C for 24 h. Optical density was measured at 630 nm and background optical densities were subtracted from each well. MIC80 were defined as the minimum inhibition concentration of the drugs that inhibited growth by 80% when compared with drug-free wells. The fractional inhibitory concentration index (FICI) were defined as the sum of the MIC80 of each drug when used in combination divided by the MIC80 of the drug used alone. Synergism and antagonism were defined by FICIs of≤ 0.5 and >4, respectively. An FICI result of > 0.5 but ≤ 4 was considered indifferent.[43]

[4] = tested on: C. albicans ATCC 90028; assay: Checkerboard microdilution assay, quality control strain; assay type: cell-based, Candida albicans; settings: ATCC90028; for MIC80 in combination: FLC combined with Ost
Protocol: as §1, §2

## OC(Cn1cncn1)(Cn1cncn1)c1ccc(F)cc1F [FLC, fluconazole, reference compound]
[1]
  average survival day: 8.7 days
[2]; FLC alone, 10 μg, 35°C, 48 h
  inhibition, disk on plain agar: only weak inhibition
[3]; isolate 32
  MIC80: 64 µg/mL
  MIC80 in combination: 2 µg/mL
[3]; isolate 100
  MIC80: > 64 µg/mL
  MIC80 in combination: 4 µg/mL
[3]; isolate 103
  MIC80: > 64 µg/mL
  MIC80 in combination: 4 µg/mL
[3]; isolate 557
  MIC80: > 64 µg/mL
  MIC80 in combination: 2 µg/mL
[3]; isolate 842
  MIC80: > 64 µg/mL
  MIC80 in combination: 2 µg/mL
[3]; isolate 901
  MIC80: > 64 µg/mL
  MIC80 in combination: 2 µg/mL
[3]; isolate 904
  MIC80: > 64 µg/mL
  MIC80 in combination: 2 µg/mL
[3]; isolate 953
  MIC80: 64 µg/mL
  MIC80 in combination: 2 µg/mL
[3]; isolate J5
  MIC80: > 64 µg/mL
  MIC80 in combination: 2 µg/mL
[3]; isolate J28
  MIC80: > 64 µg/mL
  MIC80 in combination: 8 µg/mL
[3]; isolate J35
  MIC80: 64 µg/mL
  MIC80 in combination: 1 µg/mL
[3]
  antifungal activity when tested alone: weak antifungal activity
[4]
  MIC80 in combination: 0.0625 µg/mL
[4]; Candida albicans, 35 °C, 24 h, read-out: MIC80 alone
  MIC80: 0.25 µg/mL

## 7-methoxy-8-[3-methylpent-2-enyl] coumarin [Ost]
[2]; 8 μg Ost disk on YEPD plate containing 64 μg/ml FLC
  mean diameter of the inhibitory zone: 8 mm
[2]; 16 μg Ost disk on YEPD plate containing 64 μg/ml FLC
  mean diameter of the inhibitory zone: 12 mm
[2]; 32 μg Ost disk on YEPD plate containing 64 μg/ml FLC
  mean diameter of the inhibitory zone: 16 mm
[2]; 64 μg Ost disk on YEPD plate containing 64 μg/ml FLC
  mean diameter of the inhibitory zone: 21 mm
[2]; 64 μg, 35°C, 48 h
  anti-fungal activity, disk on plain agar: weak anti-fungal activity
[2]; smaller dosage (below 64 μg), 35°C, 48 h
  anti-fungal activity, disk on plain agar: no anti-fungal activity
[3]
  antifungal activity when tested alone: weak antifungal activity
[3]; isolate 32
  MIC80 alone: 64 µg/mL
  MIC80 in combination: 4 µg/mL
[3]; isolate 100
  MIC80 alone: 32 µg/mL
  MIC80 in combination: 4 µg/mL
[3]; isolate 103
  MIC80 alone: 64 µg/mL
  MIC80 in combination: 4 µg/mL
[3]; isolate 557
  MIC80 alone: 64 µg/mL
  MIC80 in combination: 2 µg/mL
[3]; isolate 842
  MIC80 alone: 64 µg/mL
  MIC80 in combination: 2 µg/mL
[3]; isolate 901
  MIC80 alone: 16 µg/mL
  MIC80 in combination: 4 µg/mL
[3]; isolate 904
  MIC80 alone: >64 µg/mL
  MIC80 in combination: 4 µg/mL
[3]; isolate 953
  MIC80 alone: 32 µg/mL
  MIC80 in combination: 4 µg/mL
[3]; isolate J5
  MIC80 alone: 64 µg/mL
  MIC80 in combination: 8 µg/mL
[3]; isolate J28
  MIC80 alone: 64 µg/mL
  MIC80 in combination: 8 µg/mL
[3]; isolate J35
  MIC80 alone: 32 µg/mL
  MIC80 in combination: 8 µg/mL
[4]; 35 °C, 24 h
  MIC80 alone: 8 µg/mL
[4]
  MIC80 in combination: 1 µg/mL

— publication PMC5955437, “Antifungal activity of osthol in vitro and enhancement in vivo through Eudragit S100 nanocarriers” (Virulence, 2017)
